Several values for one entry are separate records, joined by “and”; a condition that tells them apart may be missing. Equal values may be shown once.
Key:
MAC (101, type 1) [1] = assay: MAC infected beige mice, experiment 2 (three times/week for 21 days), tissue cfu; assay type: in vivo, Beige mice (C57B1/6bg^j /bg^j)
Description: (§1) The testing of liposome encapsulated amikacin for the treatment of MAC was performed using a murine model. Beige mice (C57B1/6bg^j /bg^j) were infected with MAC (101, type 1). The mice were infected by injection of 1×10^7 Colony Forming Units (cfu) in the mouse tail vein (i.v.). Three experiments were performed. In the first experiment, 40, 80 and 120 milligrams of amikacin (liposomal and free) per kilogram of mouse body-weight was given i.v. daily for 5 days, beginning 7 days after infection. The animals were sacrificed 5 days after treatment was completed and the liver, lung and spleen tissue were plated. Quantitation of organisms in liver, spleen and lung tissue was performed. The cfu were determined by growth on Middlebrook 7h11 agar plates. Untreated and empty liposomes were used as controls.
Another experiment was carried out as above (also in two parts) except that the drug therapy was started 5 days after infection. The drug was given i.v. three times/week for 21 days. The mice were sacrificed 1-2 days after the treatment stopped. […] The lung tissues were not tested. Similar controls were used as above. The liposomes were prepared as described in Example 1. The average size of the liposomes was 66.5 nm or 79.6 nm (mean diameter). The concentration of the amikacin was either 15.98 mg/ml or 6.74 mg/ml. The total lipid was measure only the second part of the experiment and it was 27.0 mg/ml (drug to lipid ratio: 1:4.167).

[2] = 150 mg/kg; known in the art; cited from earlier work
[3] = tested on: Mycobacterium tuberculosis; settings: background statement; cited from earlier work
[4] = tested on: M. tuberculosis drug susceptible strain H37RV; assay: Intracellular activity against drug susceptible M. tuberculosis (H37RV) in human monocyte derived macrophages; assay type: cell-based; settings: for CFU (1 × 10^3): duplicate values
MAC (101, type 1) [5] = assay: MAC infected beige mice, experiment 1 (daily for 5 days), tissue cfu; assay type: in vivo, Beige mice (C57B1/6bg^j /bg^j)
Description: as §1
The liposomes were prepared as in Example 1. This experiment was performed in two identical parts. The liposomes in the first part were of an average size of 49.8 nm and the average size of the liposomes in the second part were 73.7 nm (mean diameter). The amikacin concentration was either 15.0 mg/ml or 13.21 mg/ml and the total lipid concentration was either 121 mg/ml or 55.7 mg/ml respectively (drug to lipid ratios: 0.123, 0.24). Free drug for all experiments was prepared in the same buffer that the liposomal formulations were contained in.

MAC (101, type 1) [6] = assay: MAC infected beige mice, experiment 3 (higher doses), tissue cfu; assay type: in vivo, Beige mice (C57B1/6bg^j /bg^j); settings: 120 mg/kg i.v. three times/week for 21 days
Description: as §1
Another experiment was carried out as above (also in two parts) except that the drug therapy was started 5 days after infection. The drug was given i.v. three times/week for 21 days. The mice were sacrificed 1-2 days after the treatment stopped. During the treatment period, a group of mice received 40 mg/Kg, 80 mg/kg, and 150 mg/kg of free amikacin and another group received 40 mg/kg, 80 mg/kg, and 160 mg/kg of liposomal amikacin. The lung tissues were not tested. Similar controls were used as above. The liposomes were prepared as described in Example 1. The average size of the liposomes was 66.5 nm or 79.6 nm (mean diameter). The concentration of the amikacin was either 15.98 mg/ml or 6.74 mg/ml. The total lipid was measure only the second part of the experiment and it was 27.0 mg/ml (drug to lipid ratio: 1:4.167).
A third experiment was carried out as in the second experiment except that the mice treated with the liposomal amikacin received 120 mg/kg, 240 mg/kg and 320 mg/kg doses and the mice treated with the free amikacin received only 120 mg/kg doses. The liposomes were prepared as in Example 2 where the average size of the liposomes were 81.8 nm (median diameter). The amikacin concentration was 32.02 mg/ml and the total lipid concentration was 91.5 mg/ml (drug to lipid ratio: 1:2.941).

[7] = assay type: in vivo, mouse (C57B1/6); settings: 100 mg/kg i.v.; 6 hours
Description: Amidacin content was measured in mouse (C57B1/6, females 2-3 months old) plasma after injection (i.v.) of free amikacin or liposomal amikacin (100 mg/kg). Liposomal amikacin was prepared as described in Example 2. Blood samples were obtained at various time intervals. The samples were collected by removing 100 microliters of blood, retroorbitally, from nonanesthetized mice. The samples were collected in heparinized capillary pipets which were plugged with modeling clay. The samples were centrifuged at 3250 rpm (20 cm rotor) for 10 minutes. The samples were analyzed using a radioimmunoassay (Diagnostic Products). The liposomal amikacin formulation contained liposomes with an average size of 43.6 nm (median diameter). The amikacin concentration was 10.09 mg/ml and the total lipid concentration was 56.8 mg/ml (drug to lipid ratio 1:5.556).

Pseudomonas aeruginosa = assay: Efficacy and toxicity in Pseudomonas infected mice (mortality); assay type: in vivo, CF-1 mice; settings: two doses
Description: The efficacy and toxicity of liposomal amikacin in Pseudomonas infected mice was tested. CF-1 mice were used (females, 6-8 weeks old). The mice were obtained from Jackson Labs. A clinical isolate of Pseudomonas aeruginosa was obtained on a Mueller Hinton/MacConkey blood agar plate. The organisms were transferred to a Mueller Hinton plate and grown for 24 hours. Colonies were transferred to saline and grown for 48 hours. The samples were frozen in saline containing 15% fetal calf serum at 1×10^8 organisms/ml (MacFarland Standard). The colonies were stored at -70° C. The colonies were thawed and grown in a Mueller Hinton plate for 24 hours. The bacteria were adjusted to 8×10^6 organisms/ml in saline containing talc (62.5 mg/ml) and 1 ml was injected intraperitoneal. A culture of inoculum on MH agar for 24 hours determined that approximately 7×10^6 cfu were delivered per mouse. Liposomal amikacin and empty liposomes were prepared as set out in Example 2. […] The lipid concentration was 95.31 mg/ml and the amikacin concentration was 23.54 mg/ml (0.25 drug/lipid ratio). The pH of the solution containing the formulation was 7.31. […] The concentration of the free amikacin solution was 23.54 mg/ml. The pH of the solution containing the liposomes was 7.33.
Mice were treated with 40 mg/kg (drug per body-weight), 80 mg/kg, 120 mg/kg and 240 mg/kg of liposomal amikacin. Mice were also treated with 40 mg/kg, 80 mg/kg, and 120 mg/kg of free amikacin. The drugs were administered intravenously in the caudal vein. Two doses were given; one at four hours after infection and one at twenty-four hours after infection.

[8] = 40 mg/kg i.v. three times/week for 21 days
[9] = 80 mg/kg i.v. three times/week for 21 days
[10] = 120 mg/kg i.v. three times/week for 21 days
[11] = 120 mg/kg i.v. daily for 5 days

NCC[C@H](O)C(=O)N[C@@H]1C[C@H](N)[C@@H](O[C@H]2O[C@H](CN)[C@@H](O)[C@H](O)[C@H]2O)[C@H](O)[C@H]1O[C@H]1O[C@H](CO)[C@@H](O)[C@H](N)[C@H]1O [amikacin]
Liver cfu/g (MAC (101, type 1) [1]; [8]): 1.09 × 10^8 cfu/g
Liver log cfu (MAC (101, type 1) [1]; [8]): 8.04 log cfu
Spleen cfu/g (MAC (101, type 1) [1]; [8]): 5.76 × 10^8 cfu/g
Spleen log cfu (MAC (101, type 1) [1]; [8]): 8.76 log cfu
Liver cfu/g (MAC (101, type 1) [1]; [9]): 3.67 × 10^7 cfu/g
Liver log cfu (MAC (101, type 1) [1]; [9]): 7.56 log cfu
Spleen cfu/g (MAC (101, type 1) [1]; [9]): 2.02 × 10^8 cfu/g
Spleen log cfu (MAC (101, type 1) [1]; [9]): 8.31 log cfu
Liver cfu/g (MAC (101, type 1) [1]; [10]): 3.15 × 10^7 cfu/g
Liver log cfu (MAC (101, type 1) [1]; [10]): 7.50 log cfu
Spleen cfu/g (MAC (101, type 1) [1]; [10]): 1.48 × 10^8 cfu/g
Spleen log cfu (MAC (101, type 1) [1]; [10]): 8.17 log cfu
lethality in mice [2]: will kill many of the mice injected
effectiveness against Mycobacterium tuberculosis [3]: effective
inhibition or killing of drug susceptible M. tuberculosis ([4]; 1 μg/ml): inhibited the growth of the bacteria
Avg. log CFU ([4]; 1 μg/ml, day 4): 4.7 log CFU
CFU (1 × 10^3) ([4]; 1 μg/ml, day 4): 50 1 × 10^3 CFU and 60 1 × 10^3 CFU
Avg. log CFU ([4]; 1 μg/ml, day 7): 5.9 log CFU
CFU (1 × 10^3) ([4]; 1 μg/ml, day 7): 900 1 × 10^3 CFU and 800 1 × 10^3 CFU
inhibition or killing of drug susceptible M. tuberculosis ([4]; 2 μg/ml): inhibition
Avg. log CFU ([4]; 2 μg/ml, day 4): 4.3 log CFU
CFU (1 × 10^3) ([4]; 2 μg/ml, day 4): 20 1 × 10^3 CFU
Avg. log CFU ([4]; 2 μg/ml, day 7): 4.7 log CFU
CFU (1 × 10^3) ([4]; 2 μg/ml, day 7): 40 1 × 10^3 CFU and 50 1 × 10^3 CFU
Avg. log CFU ([4]; 4 μg/ml, day 4): 3.7 log CFU
inhibition or killing of drug susceptible M. tuberculosis ([4]; 4 μg/ml, day 4): obtained killing at day 4
CFU (1 × 10^3) ([4]; 4 μg/ml, day 4): 4 1 × 10^3 CFU
Avg. log CFU ([4]; 4 μg/ml, day 7): 3.4 log CFU
CFU (1 × 10^3) ([4]; 4 μg/ml, day 7): 1.5 1 × 10^3 CFU and 3 1 × 10^3 CFU
Liver cfu/g (MAC (101, type 1) [5]; 40 mg/kg i.v. daily for 5 days): 1.41 × 10^8 cfu/g
Liver log cfu/g (MAC (101, type 1) [5]; 40 mg/kg i.v. daily for 5 days): 8.15 log cfu/g
Spleen cfu/g (MAC (101, type 1) [5]; 40 mg/kg i.v. daily for 5 days): 4.08 × 10^8 cfu/g
Spleen log cfu/g (MAC (101, type 1) [5]; 40 mg/kg i.v. daily for 5 days): 8.61 log cfu/g
lung cfu/gram (MAC (101, type 1) [5]; 40 mg/kg i.v. daily for 5 days): 1.44×10^6 cfu/gram
lung log (MAC (101, type 1) [5]; 40 mg/kg i.v. daily for 5 days): 6.16 log
Liver cfu/g (MAC (101, type 1) [5]; 80 mg/kg i.v. daily for 5 days): 7.79 × 10^7 cfu/g
Liver log cfu/g (MAC (101, type 1) [5]; 80 mg/kg i.v. daily for 5 days): 7.89 log cfu/g
Spleen cfu/g (MAC (101, type 1) [5]; 80 mg/kg i.v. daily for 5 days): 4.82 × 10^8 cfu/g
Spleen log cfu/g (MAC (101, type 1) [5]; 80 mg/kg i.v. daily for 5 days): 8.68 log cfu/g
lung cfu/gram (MAC (101, type 1) [5]; 80 mg/kg i.v. daily for 5 days): 1.29×10^6 cfu/gram
lung log (MAC (101, type 1) [5]; 80 mg/kg i.v. daily for 5 days): 6.11 log
Liver cfu/g (MAC (101, type 1) [5]; [11]): 5.65 × 10^7 cfu/g
Liver log cfu/g (MAC (101, type 1) [5]; [11]): 7.75 log cfu/g
Spleen cfu/g (MAC (101, type 1) [5]; [11]): 3.46 × 10^8 cfu/g
Spleen log cfu/g (MAC (101, type 1) [5]; [11]): 8.54 log cfu/g
lung cfu/gram (MAC (101, type 1) [5]; [11]): 9.94×10^5 cfu/gram
lung log (MAC (101, type 1) [5]; [11]): 6.00 log
Liver cfu/g (MAC (101, type 1) [6]): 6.10 × 10^7 cfu/g
Liver log cfu/g (MAC (101, type 1) [6]): 7.78 log cfu/g
Spleen cfu/g (MAC (101, type 1) [6]): 2.13 × 10^8 cfu/g
Spleen log cfu/g (MAC (101, type 1) [6]): 8.33 log cfu/g
Average Concentration (plasma amikacin) [7]: none detected
Mortality % (Pseudomonas aeruginosa; 40 mg/kg i.v.): 25%
Mortality (Pseudomonas aeruginosa; 40 mg/kg i.v., 24 hours post infection): 1/4
Mortality (Pseudomonas aeruginosa; 40 mg/kg i.v., 30 hours post infection): 1/4
Mortality (Pseudomonas aeruginosa; 40 mg/kg i.v., 48 hours post infection): 1/4
Mortality (Pseudomonas aeruginosa; 40 mg/kg i.v., 72 hours post infection): 1/4
Mortality % (Pseudomonas aeruginosa; 80 mg/kg i.v.): 0%
Mortality (Pseudomonas aeruginosa; 80 mg/kg i.v., 24 hours post infection): 0/6
Mortality (Pseudomonas aeruginosa; 80 mg/kg i.v., 30 hours post infection): 0/6
Mortality (Pseudomonas aeruginosa; 80 mg/kg i.v., 48 hours post infection): 0/6
Mortality (Pseudomonas aeruginosa; 80 mg/kg i.v., 72 hours post infection): 0/6
Mortality % (Pseudomonas aeruginosa; 120 mg/kg i.v.): 0%
Mortality (Pseudomonas aeruginosa; 120 mg/kg i.v., 24 hours post infection): 0/6
Mortality (Pseudomonas aeruginosa; 120 mg/kg i.v., 30 hours post infection): 0/6
Mortality (Pseudomonas aeruginosa; 120 mg/kg i.v., 48 hours post infection): 0/6
Mortality (Pseudomonas aeruginosa; 120 mg/kg i.v., 72 hours post infection): 0/6

Source: patent US5756120A, “Antibiotic formulation and use for drug resistant infections” (NeXstar Pharmaceuticals, Inc., priority 1995, dated 1998)
